The subject of data set [1] is T-cells in PBMC of patients recovered from SARS-CoV-2 infection. Type of data set: cell-based, human.
The subject of data set [2] is T-cells of donors never exposed to SARS-CoV-2. Type of data set: cell-based, human. To be noted: IFN-γ ELISPOT, unexposed donors.
A further data set has as its system peptide-specific T-cells. In words: Self-vaccination of a healthy volunteer with SARS-CoV-2-derived peptides, XS15 and Montanide. Type of data set: in vivo, human. The text has this:
Development of antibody-dependent enhancement (ADE) antibodies has been identified as potential risk for infected patients after vaccination approaches; see Graham B S. Rapid COVID-19 vaccine development. Science. 2020. In contrast to other classical vaccines aiming to induce an antibody-response to prevent viral infections the CoVac-1 vaccine is designed to induce SARS-CoV-2 specific T-cells. […] Therefore, there is compared to other vaccine approaches only minimal risk of induction of ADE antibodies by the CoVac-1 vaccine.
A more current report of self-vaccination of the same individual includes the administration of SARS-CoV-2-derived peptides performed in March 2020. Here, the self-experimenting healthy volunteer used eight SARS-CoV-2-derived peptides: five predicted to bind to HLA class I molecules (CD8 peptides) and three predicted to bind to HLA-DR molecules (CD4 peptides, including two peptides from the CoVac-1 vaccine). […] About 3 weeks after a single vaccination, using a vaccine containing the mentioned synthetic peptides, Montanide and containing 50 μg XS15, strong vaccine-induced CD4^+ T-cell responses against all […] HLA-DR peptides and against the recall CMV epitope could be detected. No T-cell responses against the five predicted SARS-CoV-2 HLA class I peptides could be detected by ex vivo Interferon-γ ELISpot assay. […]

The subject of data set [3] is peptide vaccine-specific T-cells. It is filed as in vivo, human. As to conditions: after one injection, preliminary.
The conditions of data set [4]: XS15 emulsified in Montanide ISA 51 VG.
The conditions of data set [5]: cited from earlier work.

Peptide text beside a SMILES is read from it. * marks the point of attachment. Propyl(2R-PamO,3-PamO) = CCCCCCCCCCCCCCCC(=O)OC[C@H](C*)OC(=O)CCCCCCCCCCCCCCC; Palmitoyl = CCCCCCCCCCCCCCCC(=O)*

The values that follow come from patent publication US20230322865A1 (priority 2020, published 2023).

Turning to “RWYFYYLGTGPEAGL (SARS-CoV-2) [SEQ ID NO: 2, SARS-CoV-2 nucleocapsid-derived HLA-DR peptide]”, in data set [1], the “SARS cohort frequency [%]” value came out at 73% and the SARS cohort pos/tested is listed as 16/22. In data set [2], the “PRE cohort frequency [%]” value was 6% and the PRE cohort pos/tested is given as 1/18.
On the same counts, the results for ITRFQTLLALHRSYL [SEQ ID NO: 7] are 55%, 12/22, 5% and 1/20.
Take “LLLLDRLNQLESKMS (SARS-CoV-2) [SEQ ID NO: 4, SARS-CoV-2 nucleocapsid-derived HLA-DR peptide]”: in data set [1], the “SARS cohort frequency [%]” value worked out at 64% and the SARS cohort pos/tested is listed as 14/22. In data set [2], the “PRE cohort frequency [%]” value worked out at 6% and the PRE cohort pos/tested is on record as 1/17.
Consider `CC(C)C[C@H](NC(=O)[C@@H](NC(=O)[C@H](CO)NC(=O)[C@H](Cc1ccc(O)cc1)NC(=O)[C@H](CC(=O)O)NC(=O)[C@H](C)NC(=O)[C@@H](N)C(C)C)C(C)C)C(=O)N[C@@H](Cc1ccc(O)cc1)C(=O)N[C@@H](CC(N)=O)C(=O)N[C@@H](CO)C(=O)N[C@@H](C)C(=O)N[C@@H](CO)C(=O)N[C@@H](Cc1ccccc1)C(=O)N[C@@H](CO)C(=O)N[C@H](C(=O)O)[C@@H](C)O` [SEQ ID NO: 6], for which the “antibody induction against vaccine peptide” value in the data set with peptide-specific T-cells is recorded as “no antibody induction was observed”.
As for “ASAFFGMSRIGMEVT (SARS-CoV-2) [SEQ ID NO: 5, SARS-CoV-2 nucleocapsid-derived HLA-DR peptide]”, in data set [1], the “SARS cohort frequency [%]” value was 52% and the SARS cohort pos/tested is 12/23. Besides, in data set [2], the “PRE cohort frequency [%]” value came to 6% and the PRE cohort pos/tested is given as 1/18.
Regarding `CCCCCCCCCCCCCCCC(=O)N[C@@H](CSC[C@@H](COC(=O)CCCCCCCCCCCCCCC)OC(=O)CCCCCCCCCCCCCCC)C(=O)NCC(=O)N[C@@H](CC(=O)O)C(=O)N1CCC[C@H]1C(=O)N[C@@H](CCCCN)C(=O)N[C@@H](Cc1c[nH]cn1)C(=O)N1CCC[C@H]1C(=O)N[C@@H](CCCCN)C(=O)N[C@@H](CO)C(=O)N[C@@H](Cc1ccccc1)C(=O)O` [XS15] (Palmitoyl-C(Propyl(2R-PamO,3-PamO))GDPKHPKSF-OH; C-terminus assumed), the “Induction of T-cell responses against vaccine peptides, % of healthy volunteer (HV) and patients” value in data set [3] came out at 100%. Also, in data set [4], the “Persistence of induced immune responses” value was “more than 1.5 years” and the “Persistence of vaccinated peptides in granuloma on vaccination site” value is recorded as “at least 7 weeks”. Moreover, in data set [5] (80 μg XS15, days 17 and 41), the “Granuloma volume at injection site (ultrasound)” value is listed as “about 8 ml”. Besides, the “Ex vivo T-cell responses in peripheral blood detectable” value in data set [5] (single vaccination) is “more than one year”.
On to SKWYIRVGARKSAPL [SEQ ID NO: 10], for which, in data set [1], the “SARS cohort frequency [%]” value worked out at 68% and the SARS cohort pos/tested is 15/22. Besides, in data set [2], the “PRE cohort frequency [%]” value was 25% and the PRE cohort pos/tested is listed as 4/16.
In the same order, the values of “ASWFTALTQHGKEDL (SARS-CoV-2) [SEQ ID NO: 3, SARS-CoV-2 nucleocapsid-derived HLA-DR peptide]” are 59%, 13/22, 6% and 1/18.
On the same counts, the results for “FYVYSRVKNLNSSRV (SARS-CoV-2) [SEQ ID NO: 9, SARS-CoV-2 envelope protein-derived HLA-DR peptide]” are 50%, 11/22, 11% and 2/19.
Take “KDGIIWVATEGALNT (SARS-CoV-2) [SEQ ID NO: 1, SARS-CoV-2 nucleocapsid-derived HLA-DR peptide]”: in data set [1], the “SARS cohort frequency [%]” value was found to be 91% and the SARS cohort pos/tested is 20/22. Also, in data set [2], the “PRE cohort frequency [%]” value came out at 44% and the PRE cohort pos/tested was 8/18.
